According to US5480902A, “Thienylpyrrole fungicidal agents” (American Cyanamid Company, priority 1993, dated 1996):

Legend:
[1] = tested on: Fusarium oxysporum f. sp. cucumerinum; assay: In vitro fungicidal activity, growth inhibition of ground fungal mycelia (FUSOXC); format: cell-based; conditions: 25 ppm, 3-4 days at 21° C., averaged when more than one test, read-out: Growth inhibition rating, FUSOXC
Procedure: (§1) Test compounds are dissolved or suspended in acetone and dispersed into cell well plates containing a suspension of ground fungal mycelia in a nutrient broth. Assay plates are incubated for 3-4 days at 21° C. Growth inhibition is measured visually and is rated using the following scale:
(§2) Assay fungi include the plant pathogens, Pythium ultimum (Pythul); Rhizoctonia solani (Rhizso); Fusarium oxysporum f. sp. cucumerinum (Fusoxc); and Pseudocercosporella herpotrichoides (Psdche).
(§3) When more than one test is run, the data are averaged.

Rhizoctonia solani = assay: In vitro fungicidal activity, growth inhibition of ground fungal mycelia (RHIZSO); format: cell-based; conditions: 3-4 days at 21° C., averaged when more than one test, read-out: Growth inhibition rating, RHIZSO
Procedure: as §1, §2, §3

Venturia inaegualis = assay: In vivo fungicidal activity on host plants, Apple Scab (AS); conditions: 400 ppm; sprayed on host plants before inoculation
Plasmopara viticola = assay: In vivo fungicidal activity on host plants, Grape Downy Mildew (GDM); conditions: 400 ppm; sprayed on host plants before inoculation
Botrytis cinerea = assay: In vivo fungicidal activity on host plants, Pepper Botrytis (PB); conditions: 400 ppm; sprayed on host plants before inoculation
Pyricularia oryzae = format: in vivo; conditions: 400 ppm; sprayed on host plants before inoculation
Cercospora beticola = assay: In vivo fungicidal activity on host plants, Sugar Beet Cercospora (SBC); conditions: 400 ppm; sprayed on host plants before inoculation; note: ranges in brackets are in %
[2] = tested on: Puccinia recondita f. sp. tritici; assay: In vivo fungicidal activity on host plants, Wheat Leaf Rust (WLR); conditions: 400 ppm; sprayed on host plants before inoculation
[3] = tested on: Erysiphe graminis f. sp. tritici; assay: In vivo fungicidal activity on host plants, Wheat Powdery Mildew (WPM); conditions: 400 ppm; sprayed on host plants before inoculation
[4] = tested on: Pseudocercosporella herpotrichoides; assay: In vitro fungicidal activity, growth inhibition of ground fungal mycelia (PSDCHE); format: cell-based; conditions: Oculimacula yallundae, 3-4 days at 21° C., averaged when more than one test, read-out: Growth inhibition rating, PSDCHE (converted)
Procedure: as §1, §2, §3

Pythium ultimum = assay: In vitro fungicidal activity, growth inhibition of ground fungal mycelia (PYTHUL); format: cell-based; conditions: Globisporangium ultimum, 3-4 days at 21° C., averaged when more than one test, read-out: Growth inhibition rating, PYTHUL (converted)
Procedure: as §1, §2, §3

N#Cc1c(Cl)[nH]c(-c2ccc(Cl)s2)c1Br [Compound 7, 4-Bromo-2-chloro-5-(5-chloro-2-thienyl)pyrrole-3-carbonitrile]
inhibition at 25 ppm [1]: 0%
inhibition at 25 ppm (Rhizoctonia solani): 60 to 89%
Disease control rating, AS (Venturia inaegualis): 8 (96-99)
Disease control rating, GDM (Plasmopara viticola): 0 (0)
Disease control rating, PB (Botrytis cinerea): 0 (0)
Disease control rating, RB (Pyricularia oryzae): 0 (0)
Disease control rating, SBC (Cercospora beticola): 0 (0)
Disease control rating, WLR [2]: 7 (90-95)
Disease control rating, WPM [3]: 0 (0)

FC(F)(F)c1[nH]c(-c2ccc(Cl)cc2)cc1-c1csc(Br)c1 [Compound 9, 3-(5-Bromo-3-thienyl)-5-(p-chlorophenyl)-2-(trifluoromethyl)pyrrole]
inhibition at 25 ppm [1]: 0%
inhibition at 25 ppm [4]: 0%
inhibition at 25 ppm (Pythium ultimum): 0%
inhibition at 25 ppm (Rhizoctonia solani): 60 to 89%
Disease control rating, AS (Venturia inaegualis): 0 (0)
Disease control rating, GDM (Plasmopara viticola): 6 (75-89)
Disease control rating, PB (Botrytis cinerea): 0 (0)
Disease control rating, RB (Pyricularia oryzae): 0 (0)
Disease control rating, SBC (Cercospora beticola): 0 (0)
Disease control rating, WLR [2]: 0 (0)
Disease control rating, WPM [3]: 0 (0)
